# Reference: patent US20170216297A1, “EFFICIENT INHIBITION OF HSP27” (TECHNISCHE UNIVERSITAET DRESDEN, priority 2014, published 2017)
# What was measured:
# U937 cells = assay: Development of resistance to bortezomib in U937 cells; format: cell-based
# Procedure: For this purpose, U937 cells (histiocytic lymphoma) were cultured in DMEM culture medium (+10% FCS) at 37° C., 5% CO2 in an H2O-saturated atmosphere. 100,000 cells/ml were seeded and incubated with the cytostatic agent bortezomib (0.1 ng/ml) and the respective test substance (dosage in the current experiment: 1 μM/L acepromazine). The reference substance, BVDU, was employed at a concentration of 30 μM/L. The cells were in each case passaged before the cell count reached 1,000,000 cells/ml. At each passage, 100,000 cells/ml were again seeded and the dose of the cytostatic agent bortezomib was increased stepwise (0.1 ng/mL or 0.05 ng/mL). The concentration of the test substances remained constant. As a result of the stepwise increase in the dosage of the cytostatic agent, resistance developed in the U937 cells. The development of resistance is prevented or inhibited in the case of a positively tested HSP27 inhibitor. The experiments from Example 6 were repeated in the same way, wherein U937 cells (histiocytic lymphoma) are cultured in DMEM culture medium (+10% FCS) at 37° C., 5% CO2 in an H2O— saturated atmosphere. 100,000 cells/ml were seeded and incubated with an initial concentration of 0.2 ng/ml of the cytostatic agent bortezomib and both without an inhibitor and with acepromazine as an HSP27 inhibitor at a concentration of 1 μM/L. The reference substance, BVDU, was employed at a concentration of 30 μM/L. The cells were passaged in each case before the cell count reached 1,000,000 cells/ml. At each passage, 100,000 cells/ml were again seeded and the dose of the cytostatic agent bortezomib was increased stepwise by 0.1 ng/mL. The concentration of the test substance and the reference substance remained constant. As a result of the stepwise increase in the dosage of the cytostatic agent, resistance developed in the U937 cells. The development of resistance is prevented or inhibited in the case of a positively tested HSP27 inhibitor. The cell line U-937 is a histiocytic lymphoma (DSMZ ACC 5). This cell line also responds to treatment with bortezomib, expresses HSP27 and develops resistance to bortezomib. Bortezomib is not the standard therapy for this lymphoma, but is being discussed as a possible therapeutic agent. U-937 cells were seeded with a cell count of 100,000 cells/ml in each case and regularly passaged. […] At the end of the experiment, 70,000 living cells per ml medium could be detected. For the treatment with 30 μmol/L BVDU, a final cell count of 250,000 cells/ml was detected whereas the final cell count in the culture without the addition of an HSP27 inhibitor amounted to 450,000 cells/ml. As a control, U-937 cells were treated with the respective test substances alone, FIG. 10b.
# RPMI-8226 cells = assay: Development of resistance to bortezomib in RPMI-8226 cells; format: cell-based; conditions: bortezomib 0.2-0.4 ng/ml, plus 0.75 μmol/L inhibitor
# Procedure: The cell line RPMI-8226 (DMSZ 402) is a “multiple myeloma” cell line and was chosen because bortezomib is employed as a standard therapy for multiple myeloma. RPMI-8226 cells respond to bortezomib, express HSP27 and develop resistance to Velcade. RPMI-8226 cells were seeded at a cell count of 100,000 cells/ml in each case and regularly passaged. […] In contrast, for RPMI 8226 cells that were treated with 30 μmol/L BVDU, a final cell count of 160,000 cells/ml was detected whereas the final cell count for the culture without the addition of an HSP27 inhibitor amounted to 350,000 cells/ml. As a control, RPMI 8226 cells were treated with the respective test substances alone, FIG. 4b.
# HSP27 = HSP27 (Homo sapiens, UniProt P04792); assay: Bio-layer interferometry (ForteBio Octet Red 384, biotinylated HSP27 on SSA sensors); format: binding; conditions: bio-layer interferometry; read-out: KD
# Chain of HSP27 (P04792 whole entry): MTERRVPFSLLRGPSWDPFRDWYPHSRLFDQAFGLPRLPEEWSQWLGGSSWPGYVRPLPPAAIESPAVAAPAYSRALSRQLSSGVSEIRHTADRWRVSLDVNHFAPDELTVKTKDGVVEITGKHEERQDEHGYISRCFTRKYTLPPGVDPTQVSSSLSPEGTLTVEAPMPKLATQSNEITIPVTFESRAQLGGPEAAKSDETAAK
# Description: Bio-layer interferometry is a technique for detecting biomolecular interactions. It is an analytical technique that measures the optical interference of white light which is reflected by two surfaces: in each case, one surface consists of a layer of the immobilized target protein on the tip of the biosensor and one is an internal reference surface. The binding of ligands to the target protein alters the interference pattern and can be measured in real time.
# For the measurements, an instrument of the ForteBio Octet Red 384 brand was used. The target protein HSP27 was biotinylated and bound to the appropriate sensors (SSA). […] The purine derivatives of general formula (I) or (II) pre-identified by means of in silico screening are employed for these measurements in a concentration range (KD) of between 333 μmol/L and 10 nmol/L.
# For measurements by bio-layer interferometry, biotinylated HSP27 protein was first bound to Super-Streptavidin sensors (SSA, Fortebio). The loaded sensors were then incubated (“quenched”) with biocytin. As reference, unloaded SSA sensors were incubated with biocytin. In the case of a specific binding to HSP27 of the analyte to be measured, the loaded HSP27 sensor generates a stronger signal (response) than the concurrent reference sensor. After the “baseline” has been established by incubation with the reaction buffer (PBST 0.1% Tween 20 plus 3% DMSO), first the association and then the dissociation of the respective analyte is measured in real time. The analytes were measured in increasing concentrations in each case: 1.23-3.7-11.11-33.33-100-300 μM/l.
compound,measurement,setting,value
CC(=O)c1ccc2c(c1)N(CCCN(C)C)c1ccccc1S2 [Acepromazine],living cells after the end of the experiment,"U937 cells; Example 6, FIG. 2: bortezomib 0.1 to 0.5 ng/ml stepwise, +1 μM inhibitor, without inhibitor 790,000 cells/ml",no living cells were detectable
same,development of resistance to bortezomib,"U937 cells; Example 6, FIG. 2: bortezomib 0.1 to 0.5 ng/ml, +1 μM inhibitor",no development of resistance occurred
same,living cells after the end of the experiment,"U937 cells; Example 7, FIG. 3: bortezomib 0.2 to 0.4 ng/ml stepwise, +1 μM inhibitor, without inhibitor 230,000 cells/ml",no living cells were detectable
same,development of resistance to bortezomib,"U937 cells; Example 7, FIG. 3: bortezomib 0.2 to 0.4 ng/ml, +1 μM inhibitor",no development of resistance occurred
same,development of resistance to bortezomib,"U937 cells; Examples 17/18: bortezomib 0.1-0.5 ng/ml, plus 0.75 μmol/L inhibitor",significantly inhibited
same,development of resistance to bortezomib,RPMI-8226 cells,significantly inhibited
same,Kd,HSP27,72 µM
